Measured values: ChEMBL document CHEMBL3044649, “Zn(OTf)2-catalyzed three component, one-pot cyclocondensation reaction of some new octahydroquinazolinone derivatives and access their bio-potential” (2012)
Converted amounts (≈) assume the structure as drawn.

system: Aspergillus fumigatus; test: Antimicrobial activity against Aspergillus fumigatus MTCC 3008 after 24 to 48 hr by broth microdilution method; format: functional

Molecule	MIC [µg/mL]
O=C1NC2=C(C(=O)CCC2)C(c2cc3cc(Cl)ccc3[nH]c2=O)N1 (stereo not drawn)	1000 (≈ 2910 µM)
CC1(C)CC(=O)C2=C(C1)NC(=O)NC2c1cc2ccccc2[nH]c1=S (stereo not drawn)	100 (≈ 283 µM)
Cc1ccc2[nH]c(=O)c(C3NC(=S)N(c4ccccc4)C4=C3C(=O)CC(C)(C)C4)cc2c1 (stereo not drawn)	500 (≈ 1130 µM)
NYSTATIN	100
COc1ccc2[nH]c(=O)c(C3NC(=S)NC4=C3C(=O)CCC4)cc2c1 (stereo not drawn)	> 1000
Cc1ccc2[nH]c(=O)c(C3NC(=S)NC4=C3C(=O)CC(C)(C)C4)cc2c1 (stereo not drawn)	> 1000
Cc1ccc2[nH]c(=O)c(C3NC(=S)NC4=C3C(=O)CCC4)cc2c1 (stereo not drawn)	500 (≈ 1470 µM)
O=C1CCCC2=C1C(c1cc3ccccc3[nH]c1=O)NC(=S)N2 (stereo not drawn)	200 (≈ 615 µM)

system: Escherichia coli; test: Antimicrobial activity against Escherichia coli MTCC 443 after 24 to 48 hr by broth microdilution method; format: functional

Molecule	MIC [µg/mL]
O=C1NC2=C(C(=O)CCC2)C(c2cc3cc(Cl)ccc3[nH]c2=O)N1 (stereo not drawn)	200 (≈ 582 µM)
CC1(C)CC(=O)C2=C(C1)NC(=O)NC2c1cc2ccccc2[nH]c1=S (stereo not drawn)	500 (≈ 1410 µM)
Cc1ccc2[nH]c(=O)c(C3NC(=S)N(c4ccccc4)C4=C3C(=O)CC(C)(C)C4)cc2c1 (stereo not drawn)	1000 (≈ 2250 µM)
COc1ccc2[nH]c(=O)c(C3NC(=S)NC4=C3C(=O)CCC4)cc2c1 (stereo not drawn)	50 (≈ 141 µM)
Cc1ccc2[nH]c(=O)c(C3NC(=S)NC4=C3C(=O)CC(C)(C)C4)cc2c1 (stereo not drawn)	250 (≈ 680 µM)
Cc1ccc2[nH]c(=O)c(C3NC(=S)NC4=C3C(=O)CCC4)cc2c1 (stereo not drawn)	500 (≈ 1470 µM)
O=C1CCCC2=C1C(c1cc3ccccc3[nH]c1=O)NC(=S)N2 (stereo not drawn)	100 (≈ 307 µM)

system: Vibrio cholerae; test: Antimicrobial activity against Vibrio cholerae MTCC 3906 after 24 to 48 hr by broth microdilution method; format: functional

Molecule	MIC [µg/mL]
O=C1NC2=C(C(=O)CCC2)C(c2cc3cc(Cl)ccc3[nH]c2=O)N1 (stereo not drawn)	100 (≈ 291 µM)
CC1(C)CC(=O)C2=C(C1)NC(=O)NC2c1cc2ccccc2[nH]c1=S (stereo not drawn)	200 (≈ 566 µM)
Cc1ccc2[nH]c(=O)c(C3NC(=S)N(c4ccccc4)C4=C3C(=O)CC(C)(C)C4)cc2c1 (stereo not drawn)	250 (≈ 564 µM)
COc1ccc2[nH]c(=O)c(C3NC(=S)NC4=C3C(=O)CCC4)cc2c1 (stereo not drawn)	200 (≈ 563 µM)
Cc1ccc2[nH]c(=O)c(C3NC(=S)NC4=C3C(=O)CC(C)(C)C4)cc2c1 (stereo not drawn)	100 (≈ 272 µM)
Cc1ccc2[nH]c(=O)c(C3NC(=S)NC4=C3C(=O)CCC4)cc2c1 (stereo not drawn)	500 (≈ 1470 µM)
O=C1CCCC2=C1C(c1cc3ccccc3[nH]c1=O)NC(=S)N2 (stereo not drawn)	500 (≈ 1540 µM)

system: Clostridium tetani; test: Antimicrobial activity against Clostridium tetani MTCC 449 after 24 to 48 hr by broth microdilution method; format: functional

Molecule	MIC [µg/mL]
O=C1NC2=C(C(=O)CCC2)C(c2cc3cc(Cl)ccc3[nH]c2=O)N1 (stereo not drawn)	500 (≈ 1450 µM)
CC1(C)CC(=O)C2=C(C1)NC(=O)NC2c1cc2ccccc2[nH]c1=S (stereo not drawn)	500 (≈ 1410 µM)
Cc1ccc2[nH]c(=O)c(C3NC(=S)N(c4ccccc4)C4=C3C(=O)CC(C)(C)C4)cc2c1 (stereo not drawn)	250 (≈ 564 µM)
COc1ccc2[nH]c(=O)c(C3NC(=S)NC4=C3C(=O)CCC4)cc2c1 (stereo not drawn)	200 (≈ 563 µM)
Cc1ccc2[nH]c(=O)c(C3NC(=S)NC4=C3C(=O)CC(C)(C)C4)cc2c1 (stereo not drawn)	100 (≈ 272 µM)
Cc1ccc2[nH]c(=O)c(C3NC(=S)NC4=C3C(=O)CCC4)cc2c1 (stereo not drawn)	500 (≈ 1470 µM)
O=C1CCCC2=C1C(c1cc3ccccc3[nH]c1=O)NC(=S)N2 (stereo not drawn)	200 (≈ 615 µM)

system: Candida albicans; test: Antimicrobial activity against Candida albicans MTCC 227 after 24 to 48 hr by broth microdilution method; format: functional

Molecule	MIC [µg/mL]
O=C1NC2=C(C(=O)CCC2)C(c2cc3cc(Cl)ccc3[nH]c2=O)N1 (stereo not drawn)	1000 (≈ 2910 µM)
CC1(C)CC(=O)C2=C(C1)NC(=O)NC2c1cc2ccccc2[nH]c1=S (stereo not drawn)	100 (≈ 283 µM)
Cc1ccc2[nH]c(=O)c(C3NC(=S)N(c4ccccc4)C4=C3C(=O)CC(C)(C)C4)cc2c1 (stereo not drawn)	1000 (≈ 2250 µM)
NYSTATIN	100
COc1ccc2[nH]c(=O)c(C3NC(=S)NC4=C3C(=O)CCC4)cc2c1 (stereo not drawn)	500 (≈ 1410 µM)
Cc1ccc2[nH]c(=O)c(C3NC(=S)NC4=C3C(=O)CC(C)(C)C4)cc2c1 (stereo not drawn)	> 1000
Cc1ccc2[nH]c(=O)c(C3NC(=S)NC4=C3C(=O)CCC4)cc2c1 (stereo not drawn)	200 (≈ 589 µM)
O=C1CCCC2=C1C(c1cc3ccccc3[nH]c1=O)NC(=S)N2 (stereo not drawn)	100 (≈ 307 µM)

system: Bacillus subtilis; test: Antimicrobial activity against Bacillus subtilis MTCC 441 after 24 to 48 hr by broth microdilution method; format: functional

Molecule	MIC [µg/mL]
O=C1NC2=C(C(=O)CCC2)C(c2cc3cc(Cl)ccc3[nH]c2=O)N1 (stereo not drawn)	250 (≈ 727 µM)
CC1(C)CC(=O)C2=C(C1)NC(=O)NC2c1cc2ccccc2[nH]c1=S (stereo not drawn)	500 (≈ 1410 µM)
Cc1ccc2[nH]c(=O)c(C3NC(=S)N(c4ccccc4)C4=C3C(=O)CC(C)(C)C4)cc2c1 (stereo not drawn)	250 (≈ 564 µM)
COc1ccc2[nH]c(=O)c(C3NC(=S)NC4=C3C(=O)CCC4)cc2c1 (stereo not drawn)	200 (≈ 563 µM)
Cc1ccc2[nH]c(=O)c(C3NC(=S)NC4=C3C(=O)CC(C)(C)C4)cc2c1 (stereo not drawn)	100 (≈ 272 µM)
Cc1ccc2[nH]c(=O)c(C3NC(=S)NC4=C3C(=O)CCC4)cc2c1 (stereo not drawn)	500 (≈ 1470 µM)
O=C1CCCC2=C1C(c1cc3ccccc3[nH]c1=O)NC(=S)N2 (stereo not drawn)	200 (≈ 615 µM)

system: Salmonella typhi; test: Antimicrobial activity against Salmonella enterica subsp. enterica serovar Typhi MTCC 98 after 24 to 48 hr by broth microdilution method; format: functional

Molecule	MIC [µg/mL]
O=C1NC2=C(C(=O)CCC2)C(c2cc3cc(Cl)ccc3[nH]c2=O)N1 (stereo not drawn)	250 (≈ 727 µM)
CC1(C)CC(=O)C2=C(C1)NC(=O)NC2c1cc2ccccc2[nH]c1=S (stereo not drawn)	500 (≈ 1410 µM)
Cc1ccc2[nH]c(=O)c(C3NC(=S)N(c4ccccc4)C4=C3C(=O)CC(C)(C)C4)cc2c1 (stereo not drawn)	500 (≈ 1130 µM)
COc1ccc2[nH]c(=O)c(C3NC(=S)NC4=C3C(=O)CCC4)cc2c1 (stereo not drawn)	125 (≈ 352 µM)
Cc1ccc2[nH]c(=O)c(C3NC(=S)NC4=C3C(=O)CC(C)(C)C4)cc2c1 (stereo not drawn)	150 (≈ 408 µM)
Cc1ccc2[nH]c(=O)c(C3NC(=S)NC4=C3C(=O)CCC4)cc2c1 (stereo not drawn)	500 (≈ 1470 µM)
O=C1CCCC2=C1C(c1cc3ccccc3[nH]c1=O)NC(=S)N2 (stereo not drawn)	500 (≈ 1540 µM)

system: Streptococcus pneumoniae; test: Antimicrobial activity against Streptococcus pneumoniae MTCC 1936 after 24 to 48 hr by broth microdilution method; format: functional

Molecule	MIC [µg/mL]
O=C1NC2=C(C(=O)CCC2)C(c2cc3cc(Cl)ccc3[nH]c2=O)N1 (stereo not drawn)	500 (≈ 1450 µM)
CC1(C)CC(=O)C2=C(C1)NC(=O)NC2c1cc2ccccc2[nH]c1=S (stereo not drawn)	250 (≈ 707 µM)
Cc1ccc2[nH]c(=O)c(C3NC(=S)N(c4ccccc4)C4=C3C(=O)CC(C)(C)C4)cc2c1 (stereo not drawn)	1000 (≈ 2250 µM)
COc1ccc2[nH]c(=O)c(C3NC(=S)NC4=C3C(=O)CCC4)cc2c1 (stereo not drawn)	200 (≈ 563 µM)
Cc1ccc2[nH]c(=O)c(C3NC(=S)NC4=C3C(=O)CC(C)(C)C4)cc2c1 (stereo not drawn)	100 (≈ 272 µM)
Cc1ccc2[nH]c(=O)c(C3NC(=S)NC4=C3C(=O)CCC4)cc2c1 (stereo not drawn)	500 (≈ 1470 µM)
O=C1CCCC2=C1C(c1cc3ccccc3[nH]c1=O)NC(=S)N2 (stereo not drawn)	200 (≈ 615 µM)
